Measured values published in PMC5564600 (Oncotarget, 2017).

Assays:
Assay in all cases: biochemical
Format in all cases: binding
[1] = target: T1, panel of 442 kinases (Homo sapiens, UniProt Q02750); conditions: kinase MEK1; for remaining activity at 1 µM: read-out: % of control at 1 µM
T1 construct: purchased Ambit Biosciences (scanMAXX KINOMEscan)

[2] = target: T2, panel of 442 kinases (Homo sapiens, UniProt Q8N568); conditions: DCAMKL2; for remaining activity at 1 µM: read-out: % of control at 1 µM
T2 construct: purchased Ambit Biosciences (scanMAXX KINOMEscan)
T2 sequence (Q8N568 whole entry): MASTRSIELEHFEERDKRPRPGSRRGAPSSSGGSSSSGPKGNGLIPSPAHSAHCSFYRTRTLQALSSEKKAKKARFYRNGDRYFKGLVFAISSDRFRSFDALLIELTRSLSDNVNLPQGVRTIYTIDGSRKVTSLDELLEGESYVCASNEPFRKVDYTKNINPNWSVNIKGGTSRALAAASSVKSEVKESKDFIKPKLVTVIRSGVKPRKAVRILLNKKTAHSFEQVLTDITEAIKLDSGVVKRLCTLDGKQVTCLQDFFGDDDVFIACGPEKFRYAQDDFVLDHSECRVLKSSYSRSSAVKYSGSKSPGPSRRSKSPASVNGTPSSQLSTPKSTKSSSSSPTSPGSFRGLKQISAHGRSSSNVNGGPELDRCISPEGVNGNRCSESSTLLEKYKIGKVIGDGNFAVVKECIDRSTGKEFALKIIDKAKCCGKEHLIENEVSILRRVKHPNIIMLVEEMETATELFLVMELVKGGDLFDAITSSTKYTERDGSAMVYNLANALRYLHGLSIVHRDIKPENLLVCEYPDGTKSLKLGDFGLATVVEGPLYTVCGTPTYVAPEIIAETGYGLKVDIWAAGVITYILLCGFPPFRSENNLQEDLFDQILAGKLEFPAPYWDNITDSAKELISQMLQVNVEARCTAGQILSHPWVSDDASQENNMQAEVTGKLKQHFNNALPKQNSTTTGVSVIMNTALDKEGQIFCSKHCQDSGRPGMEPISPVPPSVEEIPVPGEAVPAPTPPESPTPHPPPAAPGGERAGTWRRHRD

[3] = target: T3, panel of 442 kinases (Homo sapiens, UniProt Q16832); conditions: DDR2; for remaining activity at 1 µM: read-out: % of control at 1 µM
T3 construct: purchased Ambit Biosciences (scanMAXX KINOMEscan)
T3 sequence (Q16832 22-855): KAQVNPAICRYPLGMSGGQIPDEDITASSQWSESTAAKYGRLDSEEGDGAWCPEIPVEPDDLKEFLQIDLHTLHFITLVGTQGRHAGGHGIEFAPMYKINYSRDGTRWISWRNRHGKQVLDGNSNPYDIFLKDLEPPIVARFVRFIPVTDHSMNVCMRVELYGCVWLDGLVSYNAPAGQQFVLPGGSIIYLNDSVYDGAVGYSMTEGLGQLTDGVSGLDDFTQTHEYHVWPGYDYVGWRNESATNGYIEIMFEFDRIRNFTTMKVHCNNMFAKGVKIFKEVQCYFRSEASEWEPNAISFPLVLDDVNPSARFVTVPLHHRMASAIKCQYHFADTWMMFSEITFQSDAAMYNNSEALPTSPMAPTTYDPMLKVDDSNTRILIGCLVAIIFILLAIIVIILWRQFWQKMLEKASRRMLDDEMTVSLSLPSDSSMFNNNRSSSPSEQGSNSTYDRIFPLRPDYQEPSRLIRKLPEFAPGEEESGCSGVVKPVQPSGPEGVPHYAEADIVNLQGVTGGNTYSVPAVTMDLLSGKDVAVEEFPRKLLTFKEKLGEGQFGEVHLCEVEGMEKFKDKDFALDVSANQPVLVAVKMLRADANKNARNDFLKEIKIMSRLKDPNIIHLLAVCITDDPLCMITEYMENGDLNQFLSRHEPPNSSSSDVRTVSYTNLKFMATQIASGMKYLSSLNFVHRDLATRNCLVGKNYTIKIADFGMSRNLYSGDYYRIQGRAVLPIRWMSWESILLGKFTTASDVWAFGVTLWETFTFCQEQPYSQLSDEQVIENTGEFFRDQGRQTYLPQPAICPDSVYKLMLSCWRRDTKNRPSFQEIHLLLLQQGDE

[4] = target: T4, panel of 442 kinases (Homo sapiens, UniProt O15264); conditions: kinase p38-delta; for remaining activity at 1 µM: read-out: % of control at 1 µM
T4 construct: purchased Ambit Biosciences (scanMAXX KINOMEscan)
T4 sequence (O15264 1-365): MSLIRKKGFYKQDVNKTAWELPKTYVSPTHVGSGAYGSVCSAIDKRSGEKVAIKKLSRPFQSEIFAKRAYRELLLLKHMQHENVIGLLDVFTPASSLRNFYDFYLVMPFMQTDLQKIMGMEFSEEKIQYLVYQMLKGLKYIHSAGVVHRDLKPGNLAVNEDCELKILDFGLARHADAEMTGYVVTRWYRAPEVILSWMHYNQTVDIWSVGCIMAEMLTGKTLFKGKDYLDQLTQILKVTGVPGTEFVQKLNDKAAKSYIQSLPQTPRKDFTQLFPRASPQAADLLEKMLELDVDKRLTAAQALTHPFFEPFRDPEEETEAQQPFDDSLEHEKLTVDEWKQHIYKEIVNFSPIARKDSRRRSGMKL

[5] = target: T5, panel of 442 kinases (Homo sapiens, UniProt P46734); conditions: kinase MEK3; for remaining activity at 1 µM: read-out: % of control at 1 µM
T5 construct: purchased Ambit Biosciences (scanMAXX KINOMEscan)
T5 sequence (P46734 1-347): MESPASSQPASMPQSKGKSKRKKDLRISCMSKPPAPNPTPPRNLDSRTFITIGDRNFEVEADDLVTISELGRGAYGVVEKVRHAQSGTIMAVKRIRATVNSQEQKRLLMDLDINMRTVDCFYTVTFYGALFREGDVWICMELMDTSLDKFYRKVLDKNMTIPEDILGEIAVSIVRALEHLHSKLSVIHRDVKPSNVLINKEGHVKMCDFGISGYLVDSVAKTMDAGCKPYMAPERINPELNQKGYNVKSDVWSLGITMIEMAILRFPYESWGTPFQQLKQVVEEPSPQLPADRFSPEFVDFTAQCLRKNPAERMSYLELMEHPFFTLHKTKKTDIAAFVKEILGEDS

[6] = target: T6, panel of 442 kinases (Homo sapiens, UniProt O95835); conditions: kinase LATS1; for remaining activity at 1 µM: read-out: % of control at 1 µM
T6 construct: purchased Ambit Biosciences (scanMAXX KINOMEscan)
T6 sequence (O95835 1-1130): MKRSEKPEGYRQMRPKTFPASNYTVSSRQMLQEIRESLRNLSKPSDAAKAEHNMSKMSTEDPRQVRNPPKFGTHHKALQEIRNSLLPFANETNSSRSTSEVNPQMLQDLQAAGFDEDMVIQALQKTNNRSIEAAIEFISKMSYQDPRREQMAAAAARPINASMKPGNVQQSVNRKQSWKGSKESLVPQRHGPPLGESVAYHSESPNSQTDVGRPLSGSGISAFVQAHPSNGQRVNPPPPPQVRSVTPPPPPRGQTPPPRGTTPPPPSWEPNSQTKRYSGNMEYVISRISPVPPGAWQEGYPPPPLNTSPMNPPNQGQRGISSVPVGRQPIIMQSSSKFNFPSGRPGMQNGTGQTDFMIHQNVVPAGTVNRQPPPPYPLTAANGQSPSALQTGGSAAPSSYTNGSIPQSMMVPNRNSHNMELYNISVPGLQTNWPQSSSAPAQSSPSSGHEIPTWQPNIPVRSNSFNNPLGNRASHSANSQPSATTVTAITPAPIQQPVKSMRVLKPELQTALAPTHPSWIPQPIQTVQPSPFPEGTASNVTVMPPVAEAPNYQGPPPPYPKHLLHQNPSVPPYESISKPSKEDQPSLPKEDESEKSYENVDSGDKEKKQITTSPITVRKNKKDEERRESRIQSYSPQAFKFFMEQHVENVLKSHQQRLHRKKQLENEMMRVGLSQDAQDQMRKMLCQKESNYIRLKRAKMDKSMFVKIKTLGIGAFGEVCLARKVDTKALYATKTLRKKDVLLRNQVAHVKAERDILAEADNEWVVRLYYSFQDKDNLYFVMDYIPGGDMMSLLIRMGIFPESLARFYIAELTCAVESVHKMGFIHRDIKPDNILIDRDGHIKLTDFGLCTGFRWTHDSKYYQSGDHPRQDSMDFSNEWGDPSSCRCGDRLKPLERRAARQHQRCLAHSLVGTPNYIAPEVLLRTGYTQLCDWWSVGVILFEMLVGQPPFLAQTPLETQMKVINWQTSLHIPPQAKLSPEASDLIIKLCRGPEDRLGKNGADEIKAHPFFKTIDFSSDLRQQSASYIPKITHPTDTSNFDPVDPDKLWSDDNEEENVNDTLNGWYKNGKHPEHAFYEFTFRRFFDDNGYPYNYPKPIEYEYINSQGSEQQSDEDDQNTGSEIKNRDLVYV

[7] = 10 µM, read-out: % of control at 10 µM

T1 sequence (Q02750 whole entry): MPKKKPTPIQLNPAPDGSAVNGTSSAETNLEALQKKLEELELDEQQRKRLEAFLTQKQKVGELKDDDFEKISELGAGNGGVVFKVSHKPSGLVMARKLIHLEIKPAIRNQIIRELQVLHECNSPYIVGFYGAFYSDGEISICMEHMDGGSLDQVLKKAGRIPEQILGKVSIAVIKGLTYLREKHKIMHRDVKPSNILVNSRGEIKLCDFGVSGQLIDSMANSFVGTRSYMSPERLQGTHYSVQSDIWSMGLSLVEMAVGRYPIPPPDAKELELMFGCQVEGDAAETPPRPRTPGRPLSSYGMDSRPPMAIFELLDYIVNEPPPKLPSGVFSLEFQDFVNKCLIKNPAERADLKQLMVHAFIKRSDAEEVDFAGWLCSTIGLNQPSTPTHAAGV

Structure (SMILES)	remaining activity at 1 µM [1]	remaining activity at 10 µM [1, 7]	remaining activity at 1 µM [2]	remaining activity at 10 µM [2, 7]	remaining activity at 1 µM [3]	remaining activity at 10 µM [3, 7]	remaining activity at 1 µM [4]	remaining activity at 10 µM [4, 7]	remaining activity at 1 µM [5]	remaining activity at 10 µM [5, 7]	remaining activity at 1 µM [6]	remaining activity at 10 µM [6, 7]
Nc1cc(C(F)(F)F)c(-c2cc(N3CCOCC3)nc(N3CCOCC3)n2)cn1 [Buparlisib]	100%	100%	100%	100%	96%	84%	73%	100%	100%	100%	71%	100%
Cn1c(=O)n(-c2ccc(C(C)(C)C#N)cc2)c2c3cc(-c4cnc5ccccc5c4)ccc3ncc21 [Dactolisib, 2-methyl-2-[4-(3-methyl-2-oxo-8-quinolin-3-yl-2,3-dihydroimidazo[4,5-c]quinolin-1-yl)-phenyl] propionitrile]	94%		94%		97%		56%		96%		100%	
COc1ncc(-c2ccc3nccc(-c4ccnnc4)c3c2)cc1NS(=O)(=O)c1ccc(F)cc1F [Omipalisib]	100%		100%		100%		94%		46%		100%	
FC(F)c1nc2ccccc2n1-c1nc(N2CCOCC2)nc(N2CCOCC2)n1 [ZSTK474, 2-(difluoromethyl)-1-[4,6-di(4-morpholinyl)-1,3,5-triazin-2-yl]-1H-benzimidazole]	100%		100%		100%		100%		100%		90%	
